In PubChem BioAssay (NCI):
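Following 48 hours of exposure in 96-well plates, responses at five concentrations were used to interpolate endpoints linearly. The concentration for full growth arrest is given as TGI.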

Columns and labels:
Test in all cases: NCI anticancer screen, dose series, 48 h
[1] = tested on: SF-268 CNS
[2] = tested on: CCRF-CEM leukemia
[3] = tested on: MDA-MB-435
[4] = tested on: SK-MEL-5 melanoma
[5] = tested on: OVCAR-8 ovarian
[6] = tested on: KM12 colon
[7] = tested on: HL-60(TB) leukemia
[8] = tested on: UACC-62 melanoma
[9] = tested on: HCT-116 colon
[10] = tested on: SK-MEL-28 melanoma
[11] = tested on: RXF 393 renal
[12] = tested on: SNB-75 CNS
[13] = tested on: OVCAR-5 ovarian
[14] = tested on: SK-MEL-2 melanoma
[15] = tested on: HCT-15 colon
[16] = tested on: CAKI-1 renal
[17] = tested on: MDA-N
[18] = tested on: A498 renal
[19] = tested on: U251 CNS
[20] = tested on: NCI-H522 lung
[21] = tested on: SNB-19 CNS
[22] = tested on: MDA-MB-231 breast
[23] = tested on: COLO 205 colon
[24] = tested on: MCF7 breast
[25] = tested on: UO-31 renal
[26] = tested on: HOP-62 NSCLC
[27] = tested on: EKVX NSCLC
[28] = tested on: HCC-2998 colon
[29] = tested on: PC-3 prostate
[30] = tested on: T-47D breast
[31] = tested on: BT-549 breast
[32] = tested on: LOX IMVI melanoma
[33] = tested on: SF-295 CNS
[34] = tested on: HOP-92 NSCLC
[35] = tested on: DU-145 prostate
[36] = tested on: OVCAR-3 ovarian
[37] = tested on: NCI-H23 lung
[38] = tested on: OVCAR-4 ovarian
[39] = tested on: K-562 leukemia
[40] = tested on: SN12C renal
[41] = tested on: MOLT-4 leukemia
[42] = tested on: RPMI-8226 leukemia
[43] = tested on: TK-10 renal
[44] = tested on: SK-OV-3 ovarian
[45] = tested on: UACC-257 melanoma
[46] = tested on: SR leukemia
[47] = tested on: A549 NSCLC
[48] = tested on: HT29 colon
[49] = tested on: SF-539 CNS
[50] = tested on: SW-620 colon
[51] = tested on: NCI-H460 lung
[52] = tested on: NCI/ADR-RES ovarian
[53] = tested on: 786-0 renal
[54] = tested on: M14 melanoma
[55] = tested on: HS 578T breast
[56] = tested on: IGROV1 ovarian
[57] = tested on: ACHN renal
[58] = tested on: MALME-3M melanoma
[59] = tested on: NCI-H226 lung

COc1ccc(OC)c(CCc2cc(OC)ccc2OC)c1
TGI [1]: > 10 µM | TGI [2]: > 10 µM | TGI [3]: 0.49 µM | TGI [4]: > 9.35 µM | TGI [5]: > 10 µM | TGI [6]: > 10 µM | TGI [7]: 5.28 µM | TGI [8]: > 10 µM | TGI [9]: > 10 µM | TGI [10]: > 10 µM | TGI [11]: > 8.51 µM | TGI [12]: 9.07 µM | TGI [13]: > 10 µM | TGI [14]: > 8.88 µM | TGI [15]: > 10 µM | TGI [16]: > 10 µM | TGI [17]: 1.64 µM | TGI [18]: > 10 µM | TGI [19]: > 10 µM | TGI [20]: > 9.66 µM | TGI [21]: > 10 µM | TGI [22]: > 10 µM | TGI [23]: 4.88 µM | TGI [24]: > 10 µM | TGI [25]: > 10 µM | TGI [26]: > 10 µM | TGI [27]: > 10 µM | TGI [28]: > 10 µM | TGI [29]: > 10 µM | TGI [30]: > 10 µM | TGI [31]: > 10 µM | TGI [32]: > 10 µM | TGI [33]: > 7.31 µM | TGI [34]: > 10 µM | TGI [35]: > 10 µM | TGI [36]: 2.09 µM | TGI [37]: > 10 µM | TGI [38]: > 10 µM | TGI [39]: > 10 µM | TGI [40]: > 10 µM | TGI [41]: > 10 µM | TGI [42]: > 10 µM | TGI [43]: > 10 µM | TGI [44]: > 10 µM | TGI [45]: > 10 µM | TGI [46]: > 10 µM | TGI [47]: > 10 µM | TGI [48]: > 10 µM | TGI [49]: 4.76 µM | TGI [50]: > 10 µM | TGI [51]: > 10 µM | TGI [52]: > 6.02 µM | TGI [53]: > 10 µM | TGI [54]: > 10 µM | TGI [55]: 7.29 µM | TGI [56]: > 10 µM | TGI [57]: > 10 µM | TGI [58]: > 6.95 µM | TGI [59]: > 10 µM

Cc1ccc(-c2cc(-c3cc(-c4ccc(C)cc4C)n[nH]3)[nH]n2)c(C)c1
TGI [1]: 27.5 µM | TGI [2]: 8.45 µM | TGI [3]: 31.1 µM | TGI [4]: 56.2 µM | TGI [5]: 43.1 µM | TGI [6]: 49 µM | TGI [7]: 0.0792 µM | TGI [8]: > 62 µM | TGI [9]: 33 µM | TGI [10]: 32.4 µM | TGI [11]: 32.7 µM | TGI [12]: 34.8 µM | TGI [13]: 59 µM | TGI [14]: 36.2 µM | TGI [15]: 44.8 µM | TGI [16]: 36.2 µM | TGI [17]: 34.1 µM | TGI [18]: 34.1 µM | TGI [19]: 27.6 µM | TGI [20]: 30.3 µM | TGI [21]: 41.2 µM | TGI [22]: 32.8 µM | TGI [23]: > 62 µM | TGI [24]: 38.8 µM | TGI [25]: 45.7 µM | TGI [26]: 30.2 µM | TGI [27]: 46 µM | TGI [28]: 28.9 µM | TGI [29]: 29.2 µM | TGI [30]: > 74.4 µM | TGI [31]: 42.7 µM | TGI [32]: 38.4 µM | TGI [33]: 26.5 µM | TGI [34]: 39 µM | TGI [35]: 33.1 µM | TGI [36]: 26.9 µM | TGI [37]: 41.9 µM | TGI [38]: 29.1 µM | TGI [39]: 37.4 µM | TGI [40]: 30.7 µM | TGI [41]: 36.8 µM | TGI [42]: 10.5 µM | TGI [43]: 29.4 µM | TGI [44]: 29.4 µM | TGI [45]: 26.7 µM | TGI [46]: 26.5 µM | TGI [47]: > 52.4 µM | TGI [48]: 35.1 µM | TGI [49]: 34 µM | TGI [50]: 33.1 µM | TGI [51]: 21.4 µM | TGI [52]: 43 µM | TGI [53]: 26.2 µM | TGI [54]: 40.3 µM | TGI [55]: 44.6 µM | TGI [56]: 28.6 µM | TGI [57]: 24.4 µM | TGI [58]: 25 µM | TGI [59]: 42.9 µM

Cc1cn(C2OC(CO)C(O)C2O)c(=O)[nH]c1=O (stereo unspecified)
TGI [1]: > 1000 µM | TGI [2]: > 1000 µM | TGI [3]: > 1000 µM | TGI [4]: > 1000 µM | TGI [5]: > 1000 µM | TGI [6]: > 1000 µM | TGI [7]: > 1000 µM | TGI [8]: > 1000 µM | TGI [9]: > 1000 µM | TGI [10]: > 1000 µM | TGI [11]: > 1000 µM | TGI [12]: > 1000 µM | TGI [13]: > 1000 µM | TGI [14]: > 1000 µM | TGI [15]: > 1000 µM | TGI [16]: > 1000 µM | TGI [17]: > 1000 µM | TGI [18]: > 1000 µM | TGI [19]: > 1000 µM | TGI [20]: > 1000 µM | TGI [21]: > 1000 µM | TGI [22]: > 1000 µM | TGI [23]: > 1000 µM | TGI [24]: > 1000 µM | TGI [25]: > 1000 µM | TGI [26]: > 1000 µM | TGI [27]: > 1000 µM | TGI [28]: > 1000 µM | TGI [29]: > 1000 µM | TGI [30]: > 1000 µM | TGI [31]: > 1000 µM | TGI [32]: > 1000 µM | TGI [33]: > 1000 µM | TGI [34]: > 1000 µM | TGI [35]: > 1000 µM | TGI [36]: > 1000 µM | TGI [37]: > 1000 µM | TGI [38]: > 1000 µM | TGI [39]: > 1000 µM | TGI [40]: > 1000 µM | TGI [41]: > 1000 µM | TGI [42]: > 1000 µM | TGI [43]: > 1000 µM | TGI [44]: > 1000 µM | TGI [45]: > 1000 µM | TGI [46]: > 1000 µM | TGI [47]: > 1000 µM | TGI [48]: > 1000 µM | TGI [49]: > 1000 µM | TGI [50]: > 1000 µM | TGI [51]: > 1000 µM | TGI [52]: > 1000 µM | TGI [53]: > 1000 µM | TGI [54]: > 1000 µM | TGI [55]: > 1000 µM | TGI [56]: > 1000 µM | TGI [57]: > 1000 µM | TGI [58]: > 1000 µM | TGI [59]: > 1000 µM

N=C(N)CCNC(=O)C1CCC(N)=N1 (stereo unspecified)
TGI [1]: > 93 µM | TGI [2]: > 80.5 µM | TGI [3]: > 100 µM | TGI [4]: > 61.9 µM | TGI [5]: > 100 µM | TGI [6]: > 100 µM | TGI [7]: > 87.4 µM | TGI [8]: > 100 µM | TGI [9]: > 91 µM | TGI [10]: > 100 µM | TGI [11]: > 94.4 µM | TGI [12]: 60.4 µM | TGI [13]: > 96.6 µM | TGI [14]: > 78.7 µM | TGI [15]: > 100 µM | TGI [16]: > 100 µM | TGI [17]: > 100 µM | TGI [18]: 85.9 µM | TGI [19]: > 100 µM | TGI [20]: > 92.9 µM | TGI [21]: > 100 µM | TGI [22]: > 79.3 µM | TGI [23]: > 59 µM | TGI [24]: > 100 µM | TGI [25]: > 80.1 µM | TGI [26]: > 48.2 µM | TGI [27]: > 89.7 µM | TGI [28]: > 36.2 µM | TGI [29]: > 64.6 µM | TGI [30]: > 59.7 µM | TGI [31]: > 100 µM | TGI [32]: > 100 µM | TGI [33]: > 86.2 µM | TGI [34]: > 67.8 µM | TGI [35]: > 65.6 µM | TGI [36]: > 41.9 µM | TGI [37]: > 93.3 µM | TGI [38]: 81.3 µM | TGI [39]: > 100 µM | TGI [40]: 68.3 µM | TGI [41]: > 78.8 µM | TGI [42]: > 100 µM | TGI [43]: > 90.4 µM | TGI [44]: > 69.3 µM | TGI [45]: > 81.1 µM | TGI [46]: > 100 µM | TGI [47]: > 61.2 µM | TGI [48]: > 84.5 µM | TGI [49]: > 43.2 µM | TGI [50]: > 100 µM | TGI [51]: > 82.1 µM | TGI [52]: > 100 µM | TGI [53]: > 95.7 µM | TGI [54]: 98.1 µM | TGI [55]: 65.5 µM | TGI [56]: > 100 µM | TGI [57]: > 100 µM | TGI [58]: > 61.6 µM | TGI [59]: > 63.8 µM
